The test system of data set [1] is MTCC 737. The data set is described as follows: Biofilm inhibition assay (crystal violet). Conditions: S. aureus; at MIC or higher concentrations.
Procedure: After incubation, cells were washed with 1X PBS, and stained with 100 µl of Crystal Violet dye for 15 min, and rinsed again with 1X PBS.
Data set [2] has as its system V. cholerae (MTCC 3906). Put plainly: Broth microdilution MIC. It counts as cell-based, Vibrio cholerae. As to conditions: V. cholerae (MTCC 3906); 18 h.
Data set [3] has as its system E. coli (MTCC739). The data set is described as follows: Broth microdilution MIC. As to conditions: E. coli (MTCC739); 18 h.
For data set [4], the system named is P. aeruginosa (MTCC1934). The data set is described as follows: Agar well diffusion. Conditions: P. aeruginosa (MTCC1934); 50 µg/ml; ND = Not detected.
The test system of data set [5] is MTCC 737. The data set is described as follows: PI uptake assay. It counts as cell-based, Staphylococcus aureus. Conditions: derivatives 100 µg/ml, Polymyxin B 10 μM, 1 h. The protocol:
(§1) MTCC 737 and MRSA 831 were grown, washed, and resuspended in 5 mM HEPES (pH 7.2), with the OD600 normalized to 0.5. […] Polymyxin B (10 μM), a membrane destabilizer, was used as a reference control. Drug-free and vehicle controls (cells treated with 0.5% DMSO) were included to analyze changes in fluorescence. After 1 h of treatment, cultures were centrifuged and stained with 5 µM PI dye for 15 min. Following staining, the cultures were washed twice to remove the extra dye, and fluorescence was recorded at 485 nm excitation and 525 nm emission wavelengths ([Zhou et al., 2020]).

For data set [6], the system named is V. cholerae (MTCC 3906). The data set is described as follows: Agar well diffusion. The class given is cell-based, Vibrio cholerae. Conditions: V. cholerae (MTCC 3906); 50 µg/ml; ND = Not detected.
Data set [7] concerns K. pneumoniae (MTCC 618). Put plainly: Broth microdilution MIC. As to conditions: K. pneumoniae (MTCC 618); 18 h.
Data set [8] has as its system B. subtilis (MTCC 441). The data set is described as follows: Agar well diffusion. As to conditions: B. subtilis (MTCC 441); 50 µg/ml; ND = Not detected.
Data set [9] deals with MRSA 831 (MRSA). The data set is described as follows: Agar well diffusion.
For data set [10], the system named is MRSA 831. Put plainly: Broth microdilution MIC. As to conditions: 18 h.
Data set [11] relates to S. aureus (MTCC737). Put plainly: Broth microdilution MIC.
Data set [12] deals with P. aeruginosa (MTCC1934). The data set is described as follows: Broth microdilution MIC. As to conditions: P. aeruginosa (MTCC1934); 18 h.
Data set [13] deals with K. pneumoniae (MTCC 618). Put plainly: Agar well diffusion. Conditions: 50 µg/ml, ND = Not detected.
For data set [14], the system named is S. aureus (MTCC737). Put plainly: Agar well diffusion.
The test system of data set [15] is MRSA 831. The data set is described as follows: Neutropenic thigh infection model in mice. As to conditions: neutropenic BALB/c mice, MRSA 831 10^8 CFU/ml, oral 30 mg/kg, after 2 h and 24 h, vs untreated control.
For data set [16], the system named is E. coli (MTCC739). The data set is described as follows: Agar well diffusion. As to conditions: E. coli (MTCC739); 50 µg/ml; ND = Not detected.
For data set [17], the system named is MRSA 831. Put plainly: PI uptake assay. It counts as cell-based, methicillin-resistant S. aureus. As to conditions: derivatives 100 µg/ml, Polymyxin B 10 μM, 1 h. As for the experimental part:
as §1

Data set [18] concerns MRSA 831. The data set is described as follows: Transmission electron microscopy. As to conditions: 100 µg/ml, 12 h.
In data set [19] the test system is MTCC 737 persister cells. Put plainly: Persister killing assay. It counts as cell-based, Staphylococcus aureus. As to conditions: S. aureus persisters. The protocol:
To evaluate the persister-killing activity of 2,2’-Bipy derivatives, MTCC 737 and MRSA 831 cells were grown overnight to the stationary phase at 37°C ([Kim et al., 2018b]). […] The bacterial densities of persisters were recorded at OD600 at hourly intervals from 0 to 6 h.

For data set [20], the system named is MTCC 737. Put plainly: Neutropenic thigh infection model in mice. The class given is in vivo, Staphylococcus aureus. Conditions: neutropenic BALB/c mice, MTCC 737 10^6 CFU/ml, oral 30 mg/kg, 48 h, vs untreated group.
The subject of data set [21] is MRSA 831. The data set is described as follows: Biofilm imaging by confocal laser scanning microscopy (SYTO 9/PI). The class given is cell-based, methicillin-resistant S. aureus. As to conditions: derivatives 100 µg/ml, 24 h. From the text:
Untreated wells were used as a control. […] Using SYTO 9 and PI dyes. […] Two independent experiments were done in triplicate.

Data set [22] has as its system red blood cells. Conditions: ref Chen et al., 2011; Papalia et al., 2021; cited from earlier work.
In data set [23] the test system is MTCC 737. The data set is described as follows: Transmission electron microscopy. Conditions: S. aureus MTCC 737; 100 µg/ml, 12 h.
Data set [24] concerns MTCC 737. Put plainly: Biofilm imaging by confocal laser scanning microscopy (SYTO 9/PI). As to conditions: derivatives 100 µg/ml, 24 h.
Data set [25] concerns 3T3-L1 cell line. Put plainly: Cytotoxicity (MTT assay). It counts as cell-based, murine. As for the experimental part:
The murine fibroblast 3T3 L-1 cell line was procured from the National Centre for Cell Science (NCCS), Pune, India. The 3T3 L-1 cells were incubated at 37°C in an incubator maintained at 95% humidity and 5% CO2 in DMEM medium complemented with 10% fetal bovine serum (FBS) and 1% penicillin-streptomycin.
Synthesized derivatives were evaluated for cytotoxicity in a 3T3-L1 cell line using the MTT assay ([Ernawati et al., 2022]). 8000 cells/well were added in 96-well tissue culture flat-bottom microtiter plates for 24 h and then incubated with synthesized molecules (0-400 µg/ml) for 48 h at 37°C in a CO2 incubator. DMSO was used as solvent at a concentration of 0.1% to ensure that any observed effects were not attributable to the solvent itself, whereas 1 µg/ml doxorubicin was used in toxicity tests as a positive control. Subsequently, the media was replaced with MTT solution (100 µl) diluted in fresh media (0.5 mg/ml), and incubated for 4 h. After incubation, 100 µl of stop solution (50% DMF with 20% SDS) was added to dissolve the formazan crystals, and the plates were further incubated for 1 h. Absorbance was measured at 570 nm using BioTEK Synergy multi-plate reader ([Mosmann, 1983]; [Pratelli et al., 2023]). Percent cell viability was calculated using the following formula:
Cell viability (%)=Absorbance (Untreated - blank) - Absorbance (Test sample- blank)/Absorbance (Untreated - blank)×100

For data set [26], the system named is MRSA. More on the design: method as in Lee et al., 2017. Conditions: ref Lee et al., 2017; cited from earlier work.

The source of these data is paper PMC11802822, “Comprehensive safety and toxicity analysis of 2,2’-Bipyridine derivatives in combating MRSA biofilm formation and persistence” (Frontiers in Cellular and Infection Microbiology, 2025).

SMILES strings stand for the structures. In brackets after ≈: the same amount, converted by molar mass.

Turning to `C=CCOc1cc(C(C)=NO)nc(-c2ccccn2)c1` [NPS1, N-[1-(4-allyloxy[2,2’-bipyridin]-6-yl)ethyldiene]hydroxylamine], the “Biofilm formation inhibition (in words)” value in [1] is “highly effective”. Also, the Minimum inhibitory concentration was 12.5 mg/L (≈ 46.4 µM) in [2]; more than 100 mg/L in data set [3]; more than 100 mg/L in data set [7]; 50 mg/L (≈ 186 µM) in data set [10] (MRSA 831); 50 mg/L (≈ 186 µM) in [11] (S. aureus (MTCC737), 18 h); more than 100 mg/L in data set [12]. For the same molecule, the Zone of inhibition is 7.67 ± 1.53 mm in data set [4]; 15.33 ± 1.53 mm in data set [6]; 5.33 ± 2.31 mm in data set [8]; 8.67 ± 0.58 mm in data set [9] (MRSA 831, 50 µg/ml, ND = Not detected); 6.00 ± 3.46 mm in data set [13]; 17.00 ± 2.65 mm in data set [14] (S. aureus (MTCC737), 50 µg/ml, ND = Not detected). In addition, the Zone of inhibition in data set [16] was found to be 9.33 ± 0.58 mm. For the same molecule, the “PI fluorescence (membrane integrity)” value in data set [5] and in [17] was “exhibited fluorescence indicating membrane instability” each time. Further, the “Reduction in the bacterial load in thigh tissue” value in [15] was ~ 1.8 log10.
For the molecule `CN[C@H](CC(C)C)C(=O)N[C@H]1C(=O)N[C@@H](CC(N)=O)C(=O)N[C@H]2C(=O)N[C@H]3C(=O)N[C@H](C(=O)N[C@H](C(=O)O)c4cc(O)cc(O)c4-c4cc3ccc4O)[C@H](O)c3ccc(c(Cl)c3)Oc3cc2cc(c3O[C@@H]2O[C@H](CO)[C@@H](O)[C@H](O)[C@H]2O[C@H]2C[C@](C)(N)[C@H](O)[C@H](C)O2)Oc2ccc(cc2Cl)[C@H]1O` [Vancomycin, reference compound], the “Cell morphology (TEM)” value in [18] and in data set [23] was “distorted morphology” throughout. For the same molecule, in data set [19], the “Concentration showing similar activity on persister cell counts” value came to 100 µg/mL. For the same molecule, the “Reduction in the bacterial load in thigh tissue” value in data set [20] and in data set [15] was “approximately 1.9 log10” throughout. The zone of inhibition at 50 µg/mL is 12 mm in [9] (Staphylococcus aureus, MRSA) and 14 mm in [14] (Staphylococcus aureus, MTCC737). Also, the MIC in data set [10] (Staphylococcus aureus, MRSA, read-out: Minimum inhibitory concentration) stood at 6.25 mg/L (≈ 4.31 µM); in [11] (Staphylococcus aureus, MTCC737, 18 h, read-out: Minimum inhibitory concentration) it was 6.25 mg/L (≈ 4.31 µM). For the same molecule, the “Biofilm disruption (CLSM)” value in data set [21] is “effective biofilm disruption and severe cell damage”; in data set [24], “effective biofilm disruption and severe cell damage”. In addition, the “Concentration up to which non-hemolytic” value in [22] is listed as “up to 32 µg/ml”.
Turning to `CCC(=NO)c1cc(OC)cc(-c2cc(OC)ccn2)n1` [NPS6, N-[1-(4,4’-dimethoxy[2,2’-bipyridin]-6-yl)propyldiene]hydroxylamine], the “IC50 (cytotoxicity, MTT)” value in [25] is 168.1 mg/L.
On to `COc1cc(-c2ccccn2)nc(CO)c1SC` [collismycin C], for which, in data set [26], the MRSA biofilm formation result is “inhibited MRSA biofilm formation”.
